In ChEMBL document CHEMBL4725321, “Study on antitumor activities of the chrysin-chromene-spirooxindole on Lewis lung carcinoma C57BL/6 mice in vivo” (Bioorg Med Chem Lett, 2020):
Calls of active or inactive are those of the source. The calls are words filed in the database; no cut-off is given here.

What was measured:
Lewis lung carcinoma [1] = assay: Antitumor activity against mouse LLC allografted in ip dosed C57BL/6 mouse assessed as induction of apoptosis by measuring increase in apoptotic bodies in tumor administered every other day by H and E staining based analysis; type: functional, organism-based; settings: dose mg/kg 100-400
[2] = Antitumor activity against mouse LLC allografted in C57BL/6 mouse assessed as tumor weight at 400 mg/kg, ip administered once every other day (reference value: 2.74 +/- 0.29 g); type: functional, Lewis lung carcinoma
Mus musculus [3] = assay: Down regulation of VEGF protein expression in mouse LLC allografted C57BL/6 mouse at 200 to 400 mg/kg, ip by Western blot analysis; type: functional, organism-based; settings: dose mg/kg 200-400
[4] = In vivo activation of p53 in mouse LLC allografted C57BL/6 mouse assessed as reduction in Akt protein expression in tumor at 200 mg/kg, ip administered once every other day by Western blot analysis relative to control; type: functional
Lewis lung carcinoma [5] = assay: Antitumor activity against mouse LLC allografted in ip dosed C57BL/6 mouse assessed as reduction in tumor volume measured after 7 days; type: functional, organism-based; settings: dose mg/kg 100-400, time 7.0 day
[6] = Toxicity in C57BL/6 mouse assessed as increase in body weight at 100 to 200 mg/kg, ip measured up to 15 days; type: organism-based; settings: in vivo, 360 h, dose 100-200 mg/kg, time <=15 day
[7] = Antitumor activity against mouse LLC allografted in C57BL/6 mouse assessed as tumor growth inhibition at 400 mg/kg, ip administered once every other day relative to control; type: functional; settings: Lewis lung carcinoma, read-out: TGI
[8] = molecular target: E3 ubiquitin-protein ligase Mdm2 (Mus musculus) (UniProt P23804); assay: In vivo activation of p53 in mouse LLC allografted C57BL/6 mouse assessed as reduction in MDM2 protein expression in tumor at 100 to 400 mg/kg, ip administered once every other day by Western blot analysis; type: functional, organism-based; settings: dose mg/kg 100-400
Sequence of E3 ubiquitin-protein ligase Mdm2 (Mus musculus) (P23804 whole entry): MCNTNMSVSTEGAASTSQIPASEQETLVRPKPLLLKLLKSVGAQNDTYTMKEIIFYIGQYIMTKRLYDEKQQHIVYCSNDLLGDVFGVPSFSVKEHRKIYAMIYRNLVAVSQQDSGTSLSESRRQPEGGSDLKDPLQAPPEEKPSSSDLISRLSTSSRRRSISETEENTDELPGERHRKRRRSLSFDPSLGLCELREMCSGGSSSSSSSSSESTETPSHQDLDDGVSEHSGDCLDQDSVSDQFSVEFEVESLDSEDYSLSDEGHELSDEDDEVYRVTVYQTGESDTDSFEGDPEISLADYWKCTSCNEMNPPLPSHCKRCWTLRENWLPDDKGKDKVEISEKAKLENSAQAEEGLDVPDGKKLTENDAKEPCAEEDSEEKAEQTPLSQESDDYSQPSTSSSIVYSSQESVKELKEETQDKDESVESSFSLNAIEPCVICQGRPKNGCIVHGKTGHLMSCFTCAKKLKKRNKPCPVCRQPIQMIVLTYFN

[9] = Antitumor activity against mouse LLC allografted in C57BL/6 mouse assessed as tumor weight at 100 mg/kg, ip administered once every other day (reference value: 2.74 +/- 0.29 g); type: functional, Lewis lung carcinoma
[10] = Toxicity in C57BL/6 mouse assessed as increase in body weight at 400 mg/kg, ip measured up to 15 days; type: organism-based; settings: in vivo, 360 h, time <=15 day
Lewis lung carcinoma [11] = assay: Antitumor activity against mouse LLC allografted in C57BL/6 mouse assessed as effect on Cyt C protein expression in tumor at 100 to 200 mg/kg, ip administered once every other day by Western blot analysis; type: functional, organism-based; settings: dose mg/kg 100-200
[12] = Upregulation of p53 protein expression in […] LLC allografted C57BL/6 mouse at 400 mg/kg, ip administered once every other day by Western blot analysis relative to control; type: functional
Lewis lung carcinoma [13] = assay: Antitumor activity against mouse LLC allografted in ip dosed C57BL/6 mouse assessed as reduction in bcl2 expression administered once every other day by Western blot analysis; type: functional, organism-based; settings: dose mg/kg 100-400
Lewis lung carcinoma [14] = assay: Antitumor activity against mouse LLC allografted in ip dosed C57BL/6 mouse assessed as induction of apoptosis by measuring nuclear contraction administered every other day by H and E staining based analysis; type: functional, organism-based; settings: dose mg/kg 100-400
[15] = Antitumor activity against mouse LLC allografted in C57BL/6 mouse assessed as tumor growth inhibition at 100 mg/kg, ip administered once every other day relative to control; type: functional; settings: Lewis lung carcinoma, read-out: TGI
[16] = Antitumor activity against mouse LLC allografted in C57BL/6 mouse assessed as bax/bcl2 ratio at 100 mg/kg, ip administered once every other day by Western blot analysis; type: functional, Lewis lung carcinoma
Lewis lung carcinoma [17] = assay: Antitumor activity against mouse LLC allografted in ip dosed C57BL/6 mouse assessed as increase in bax expression administered once every other day by Western blot analysis; type: functional, organism-based; settings: dose mg/kg 100-400
[18] = In vivo activation of p53 in mouse LLC allografted C57BL/6 mouse assessed as reduction in 5-lox protein expression in tumor at 400 mg/kg, ip administered once every other day by Western blot analysis relative to control; type: functional
[19] = Antitumor activity against mouse LLC allografted in C57BL/6 mouse assessed as tumor weight at 200 mg/kg, ip administered once every other day (reference value: 2.74 +/- 0.29 g); type: functional, Lewis lung carcinoma
Lewis lung carcinoma [20] = assay: Antitumor activity against mouse LLC allografted in ip dosed C57BL/6 mouse assessed as reduction in tumor growth administered once every other day; type: functional, organism-based; settings: dose mg/kg 100-400
Lewis lung carcinoma [21] = assay: Antitumor activity against mouse LLC allografted in C57BL/6 mouse assessed as Cyt C protein expression level in tumor at 400 mg/kg, ip administered once every other day by Western blot analysis relative to control; type: functional, organism-based
Lewis lung carcinoma [22] = assay: Antitumor activity against mouse LLC allografted in ip dosed C57BL/6 mouse assessed as induction of apoptosis by measuring reduction in number of tumor cells administered every other day by H and E staining based analysis; type: functional, organism-based; settings: dose mg/kg 100-400
Lewis lung carcinoma [23] = assay: Antitumor activity against mouse LLC allografted in C57BL/6 mouse assessed as inhibition of tumor growth at 400 mg/kg, ip measured after 7 days; type: functional, organism-based; settings: time 7.0 day
[24] = Antitumor activity against mouse LLC allografted in C57BL/6 mouse assessed as bax/bcl2 ratio at 200 mg/kg, ip administered once every other day by Western blot analysis; type: functional, Lewis lung carcinoma
Lewis lung carcinoma [25] = assay: Antitumor activity against mouse LLC allografted in ip dosed C57BL/6 mouse assessed as induction of apoptosis by measuring increase in cell debris content in tumor administered every other day by H and E staining based analysis; type: functional, organism-based; settings: dose mg/kg 100-400
[26] = Toxicity in C57BL/6 mouse assessed as effect on body weight at 100 to 400 mg/kg, ip measured on day 3; type: organism-based; settings: in vivo, 72 h, dose 100-400 mg/kg, time 3 day
[27] = Antitumor activity against mouse LLC allografted in C57BL/6 mouse assessed as tumor growth inhibition at 200 mg/kg, ip administered once every other day relative to control; type: functional; settings: Lewis lung carcinoma, read-out: TGI
Lewis lung carcinoma [28] = assay: Antitumor activity against mouse LLC allografted in C57BL/6 mouse assessed as reduction in tumor weight at 400 mg/kg, ip administered once every other day; type: functional, organism-based
Mus musculus [29] = assay: Down regulation of ICAM1 protein expression in mouse LLC allografted C57BL/6 mouse at 100 mg/kg, ip by Western blot analysis; type: functional, organism-based
Mus musculus [30] = assay: Down regulation of VEGF protein expression in mouse LLC allografted C57BL/6 mouse at 100 mg/kg, ip by Western blot analysis; type: functional, organism-based
Mus musculus [31] = assay: Down regulation of MMP2 protein expression in mouse LLC allografted C57BL/6 mouse at 200 mg/kg, ip by Western blot analysis; type: functional, organism-based
[32] = Antitumor activity against mouse LLC allografted in C57BL/6 mouse assessed as bax/bcl2 ratio at 400 mg/kg, ip administered once every other day by Western blot analysis; type: functional, Lewis lung carcinoma

## CN1C(=O)C2(C(C#N)=C(N)Oc3cc4oc(-c5ccccc5)cc(=O)c4c(O)c32)c2cc(Br)ccc21 (configuration not stated)
Lewis lung carcinoma [1]
  Activity: Dose-dependent effect
[2]
  Activity: 1.18 g
Mus musculus [3]
  Activity: Active
[4]
  fold change (FC): 0.59
Lewis lung carcinoma [5]
  Activity: Dose-dependent effect
[6]
  Activity: Toxic
[7]
  inhibition in vivo at 400 mg/kg: 56.9%
[8]
  Activity: Active
[9]
  Activity: 2.51 g
[10]
  Activity: Non-Toxic
Lewis lung carcinoma [11]
  Activity: inactive
[12]
  fold change (FC): 2.86
Lewis lung carcinoma [13]
  Activity: Dose-dependent effect
Lewis lung carcinoma [14]
  Activity: Dose-dependent effect
[15]
  inhibition in vivo at 100 mg/kg: 7.45%
[16]
  Ratio: 1.29
Lewis lung carcinoma [17]
  Activity: Dose-dependent effect
[18]
  fold change (FC): 0.4
[19]
  Activity: 2.15 g
Lewis lung carcinoma [20]
  Activity: Dose-dependent effect
Lewis lung carcinoma [21]
  Activity: Active
Lewis lung carcinoma [22]
  Activity: Dose-dependent effect
Lewis lung carcinoma [23]
  TGI: Active
[24]
  Ratio: 2.23
Lewis lung carcinoma [25]
  Activity: Dose-dependent effect
[26]
  Activity: Non-Toxic
[27]
  inhibition in vivo at 200 mg/kg: 20%
Lewis lung carcinoma [28]
  Activity: Active
Mus musculus [29]
  Activity: Active
Mus musculus [30]
  Activity: inactive
Mus musculus [31]
  Activity: Active
[32]
  Ratio: 4.13
